The source of these data is US20080015237A1 (ASTRAZENECA AB, priority 2006, published 2008).

As a reminder, the IC50 is the concentration that gives 50% inhibition.

Sequence of human Kv1.5 channel (P22460 whole entry): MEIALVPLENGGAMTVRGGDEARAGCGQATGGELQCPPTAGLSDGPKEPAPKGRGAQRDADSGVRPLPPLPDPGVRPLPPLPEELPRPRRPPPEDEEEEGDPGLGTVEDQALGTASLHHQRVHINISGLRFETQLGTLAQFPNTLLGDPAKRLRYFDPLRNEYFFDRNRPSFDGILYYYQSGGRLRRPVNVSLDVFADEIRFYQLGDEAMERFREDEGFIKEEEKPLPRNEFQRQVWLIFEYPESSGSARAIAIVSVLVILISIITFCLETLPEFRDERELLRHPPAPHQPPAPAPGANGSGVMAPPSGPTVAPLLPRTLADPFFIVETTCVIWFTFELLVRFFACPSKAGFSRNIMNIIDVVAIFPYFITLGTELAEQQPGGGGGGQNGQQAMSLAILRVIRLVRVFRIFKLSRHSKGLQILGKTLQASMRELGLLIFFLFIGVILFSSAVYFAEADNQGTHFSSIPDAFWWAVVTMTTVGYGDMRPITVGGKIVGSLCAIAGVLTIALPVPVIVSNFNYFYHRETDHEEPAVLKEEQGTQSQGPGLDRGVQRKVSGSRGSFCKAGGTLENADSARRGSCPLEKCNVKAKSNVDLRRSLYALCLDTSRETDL

This test addresses human Kv1.5 channel (Homo sapiens, UniProt P22460). Kind of test: Test A: Rb+ efflux assay. Type of test: cell-based. The following applies: CHO cells stably transfected with cDNA for human Kv1.5. On the procedure:
This assay identifies compounds that block the human Kv1.5 channel potassium channel heterologously expressed in Chinese Hamster Ovary (CHO) cells by means of Rb+ ion efflux using Flame Atomic Absorption Spectroscopy. For experimental studies, CHO cells stably transfected with cDNA for human Kv1.5 were grown as confluent layers in Falcon, 384-well tissue culture-treated black-walled clear-bottomed plates and the plates were incubated overnight at 37° C. in a cell culture incubator.
After incubating overnight the cell plates were washed and a buffer containing Rb+ ions were added to the cell plates. The plates were then incubated for another 3-4 hours in a CO2-incubator (37° C.). Following this incubation period plates were washed, compounds were added and subsequently a buffer containing elevated K+ concentrations were added in order to activate the Kv1.5 channel. Following a short incubation time, aliquots of the supernatants were transferred to supernatant plates for subsequent determination of the Rb+ content using Atomic Absorption Spectrometry (ICR8000 instrument, Aurora Biomed Inc.).
Take `CCCCNC(=O)C1c2c(F)cccc2C(=O)N1CC(C)c1ccc(Cl)cc1` (stereo not shown): the IC50 worked out at 1300 nM.
The value for `CC(C)(C)NC(=O)C1c2ccccc2C(=O)N1Cc1ccccc1-c1ccc(F)c(F)c1` (single isomer, unassigned) [(1R or 1S)-N-(tert-butyl)-2-[(3′,4′-difluorobiphenyl-2-yl)methyl]-3-oxoisoindoline-1-carboxamide] was 13000 nM; that for `CC(c1ccccc1)N1C(=O)c2ccccc2C1C(=O)NCc1ccccc1` (single isomer, unassigned) [(1R or 1S)-N-benzyl-3-oxo-2-[(1S or 1R)-1-phenylethyl]isoindoline-1-carboxamide] was 1500 nM.
In turn, `CCCCNC(=O)C1c2cc(F)ccc2C(=O)N1CC(C)c1ccc(Cl)cc1` (single isomer, unassigned) [(1R or 1S)-N-butyl-2-[(2R or 2S)-2-(4-chlorophenyl)propyl]-6-fluoro-3-oxoisoindoline-1-carboxamide] came in with an IC50 of 500 nM.
`CCCCNC(=O)C1c2cc(F)ccc2C(=O)N1CC(C)c1ccc(Cl)cc1` (single isomer, unassigned) [(1R or 1S)-N-butyl-2-[(2S or 2R)-2-(4-chlorophenyl)propyl]-6-fluoro-3-oxoisoindoline-1-carboxamide] registered an IC50 of 1700 nM.
Next, `CC(C)(C)NC(=O)C1c2ccccc2C(=O)N1Cc1ccccc1-c1ccc(F)c(F)c1` (single isomer, unassigned) [(1S or 1R)-N-(tert-butyl)-2-[(3′,4′-difluorobiphenyl-2-yl)methyl]-3-oxoisoindoline-1-carboxamide]: 5500 nM.
`CCCCNC(=O)C1c2cc(F)ccc2C(=O)N1CC(C)c1ccc(Cl)cc1` (single isomer, unassigned) [(1S or 1R)-N-butyl-2-[(2R or 2S)-2-(4-chlorophenyl)propyl]-6-fluoro-3-oxoisoindoline-1-carboxamide] returned an IC50 of 730 nM.
With `CCCCNC(=O)C1c2cc(F)ccc2C(=O)N1CC(C)c1ccc(Cl)cc1` (single isomer, unassigned) [(1S or 1R)-N-butyl-2-[(2S or 2R)-2-(4-chlorophenyl)propyl]-6-fluoro-3-oxoisoindoline-1-carboxamide], the IC50 is 15000 nM.
The compound `Cc1c(O)ccc2c1C(=O)N(Cc1ccccc1-c1ccccc1)C2C(=O)NC(C)(C)C` (single isomer, unassigned) [(R or S) 2-(biphenyl-2-ylmethyl)-N-(tert-butyl)-5-hydroxy-4-methyl-3-oxoisoindoline-1-carboxamide] yielded an IC50 of 1100 nM.
In the case of `Cc1c(O)ccc2c1C(=O)N(Cc1ccccc1-c1ccccc1)C2C(=O)NC(C)(C)C` (single isomer, unassigned) [(S or R) 2-(biphenyl-2-ylmethyl)-N-(tert-butyl)-5-hydroxy-4-methyl-3-oxoisoindoline-1-carboxamide], the IC50 came out at 17000 nM.
Compound `N#Cc1cccc(CNC(=O)C2c3ccccc3C(=O)N2Cc2cccc(Cl)c2)c1` (stereo not shown) [2-(3-chlorobenzyl)-N-(3-cyanobenzyl)-3-oxoisoindoline-1-carboxamide] gave an IC50 of 2000 nM.
Compound `O=C(NCCCC(F)(F)F)C1c2ccccc2C(=O)N1Cc1ccccc1-c1ccccc1` (stereo not shown) [2-(biphenyl-2-ylmethyl)-3-oxo-N-(4,4,4-trifluorobutyl)isoindoline-1-carboxamide] came in with an IC50 of 1500 nM.
The compound `O=C(NCc1ccc(C(F)(F)F)nc1)C1c2ccccc2C(=O)N1Cc1ccccc1-c1ccccc1` (stereo not shown) [2-(biphenyl-2-ylmethyl)-3-oxo-N-{[6-(trifluoromethyl)pyridin-3-yl]methyl}isoindoline-1-carboxamide] yielded an IC50 of 940 nM.
`CC(C)(C)NC(=O)C1c2cc(Br)ccc2C(=O)N1Cc1ccccc1-c1ccccc1` (stereo not shown) [2-(biphenyl-2-ylmethyl)-6-bromo-N-(tert-butyl)-3-oxoisoindoline-1-carboxamide] displayed an IC50 of 2400 nM. This IC50 lies about 2.6-fold higher than the previous one.
For `O=C(NCCCC(F)(F)F)C1c2cc(Cl)ccc2C(=O)N1Cc1ccccc1-c1ccccc1` (stereo not shown) [2-(biphenyl-2-ylmethyl)-6-chloro-3-oxo-N-(4,4,4-trifluorobutyl)isoindoline-1-carboxamide], 610 nM corresponded to half-maximal inhibition (IC50). Compared with the last compound, the IC50 is about 3.9-fold lower.
The value for `CCCNC(=O)C1c2cc(Cl)ccc2C(=O)N1Cc1ccccc1-c1ccccc1` (stereo not shown) [2-(biphenyl-2-ylmethyl)-6-chloro-3-oxo-N-propylisoindoline-1-carboxamide] was 1100 nM; that for `O=C(NCc1ccc(C(F)(F)F)nc1)C1c2cc(Cl)ccc2C(=O)N1Cc1ccccc1-c1ccccc1` (stereo not shown) [2-(biphenyl-2-ylmethyl)-6-chloro-3-oxo-N-{[6-(trifluoromethyl)pyridin-3-yl]methyl}isoindoline-1-carboxamide] was 1500 nM.
As to `CCNC(=O)C1c2cc(Cl)ccc2C(=O)N1Cc1ccccc1-c1ccccc1` (stereo not shown) [2-(biphenyl-2-ylmethyl)-6-chloro-N-ethyl-3-oxoisoindoline-1-carboxamide], the IC50 was 1000 nM.
Consider `O=C(NCCCC(F)(F)F)C1c2cc(F)ccc2C(=O)N1Cc1ccccc1-c1ccccc1` (stereo not shown) [2-(biphenyl-2-ylmethyl)-6-fluoro-3-oxo-N-(4,4,4-trifluorobutyl)isoindoline-1-carboxamide], for which the IC50 amounted to 2700 nM.
In the case of `CCCNC(=O)C1c2cc(F)ccc2C(=O)N1Cc1ccccc1-c1ccccc1` (stereo not shown) [2-(biphenyl-2-ylmethyl)-6-fluoro-3-oxo-N-propylisoindoline-1-carboxamide], inhibition was half-maximal at 2800 nM (IC50).
Compound `N#Cc1ccc(CNC(=O)C2c3ccccc3C(=O)N2Cc2ccccc2-c2ccccc2)cc1` (stereo not shown) [2-(biphenyl-2-ylmethyl)-N-(4-cyanobenzyl)-3-oxoisoindoline-1-carboxamide] registered an IC50 of 2800 nM. This counts as single-digit micromolar.
Compound `O=C(NCc1ccc(CNC(=O)C2c3ccccc3C(=O)N2Cc2ccccc2-c2ccccc2)cc1)C(F)F` (stereo not shown) [2-(biphenyl-2-ylmethyl)-N-(4-{[(difluoroacetyl)amino]methyl}benzyl)-3-oxoisoindoline-1-carboxamide] gave an IC50 of 2400 nM.
`Cc1c(OCF)ccc2c1C(=O)N(Cc1ccccc1-c1ccccc1)C2C(=O)NC(C)(C)C` (stereo not shown) [2-(biphenyl-2-ylmethyl)-N-(tert-butyl)-5-(fluoromethoxy)-4-methyl-3-oxoisoindoline-1-carboxamide] had a 50% inhibitory concentration (IC50) of 1700 nM.
`COc1ccc2c(c1C)C(=O)N(Cc1ccccc1-c1ccccc1)C2C(=O)NC(C)(C)C` (stereo not shown) [2-(biphenyl-2-ylmethyl)-N-(tert-butyl)-5-methoxy-4-methyl-3-oxoisoindoline-1-carboxamide] had an IC50 of 2200 nM.
The value for `CC(C)(C)NC(=O)C1c2cc(Cl)ccc2C(=O)N1Cc1ccccc1-c1ccccc1` (stereo not shown) [2-(biphenyl-2-ylmethyl)-N-(tert-butyl)-6-chloro-3-oxoisoindoline-1-carboxamide] was 1600 nM; that for `CC(C)(C)NC(=O)C1c2cc(C#N)ccc2C(=O)N1Cc1ccccc1-c1ccccc1` (stereo not shown) [2-(biphenyl-2-ylmethyl)-N-(tert-butyl)-6-cyano-3-oxoisoindoline-1-carboxamide] was 2400 nM.
Next, `CC(C)(C)NC(=O)C1c2cc(F)ccc2C(=O)N1Cc1ccccc1-c1ccccc1` (stereo not shown) [2-(biphenyl-2-ylmethyl)-N-(tert-butyl)-6-fluoro-3-oxoisoindoline-1-carboxamide]: 6700 nM; `CC(C)(C)NC(=O)C1c2c(O)cccc2C(=O)N1Cc1ccccc1-c1ccccc1` (stereo not shown) [2-(biphenyl-2-ylmethyl)-N-(tert-butyl)-7-hydroxy-3-oxoisoindoline-1-carboxamide]: 3000 nM; `O=C(NCc1ccc(F)cc1)C1c2ccccc2C(=O)N1C(c1ccccc1)c1ccccc1` (stereo not shown) [2-(diphenylmethyl)-N-(4-fluorobenzyl)-3-oxoisoindoline-1-carboxamide]: 2500 nM.
Regarding `CC(CN1C(=O)c2ccccc2C1C(=O)NCCCC(F)(F)F)c1ccc(Cl)cc1` (stereo not shown) [2-[2-(4-chlorophenyl)propyl]-3-oxo-N-(4,4,4-trifluorobutyl)isoindoline-1-carboxamide], half-maximal inhibition (IC50) was put at 1800 nM.
`CC(CN1C(=O)c2ccccc2C1C(=O)NCc1ccccc1C(F)(F)F)c1ccc(Cl)cc1` (stereo not shown) [2-[2-(4-chlorophenyl)propyl]-3-oxo-N-[2-(trifluoromethyl)benzyl]isoindoline-1-carboxamide] registered an IC50 of 700 nM.
`CCCNC(=O)C1c2ccccc2C(=O)N1CC(C)c1ccc(Cl)cc1` (stereo not shown) [2-[2-(4-chlorophenyl)propyl]-3-oxo-N-propylisoindoline-1-carboxamide] came in with an IC50 of 1300 nM.
Compound `CC(CN1C(=O)c2ccccc2C1C(=O)NCc1ccc(C(F)(F)F)nc1)c1ccc(Cl)cc1` (stereo not shown) [2-[2-(4-chlorophenyl)propyl]-3-oxo-N-{[6-(trifluoromethyl)pyridin-3-yl]methyl}isoindoline-1-carboxamide] gave an IC50 of 780 nM.
Regarding `CCCNC(=O)C1c2cc(F)ccc2C(=O)N1CC(C)c1ccc(Cl)cc1` (stereo not shown) [2-[2-(4-chlorophenyl)propyl]-6-fluoro-3-oxo-N-propylisoindoline-1-carboxamide], the IC50 stood at 2300 nM.
`CC(CN1C(=O)c2ccccc2C1C(=O)NCc1ccc(C#N)cc1)c1ccc(Cl)cc1` (stereo not shown) [2-[2-(4-chlorophenyl)propyl]-N-(4-cyanobenzyl)-3-oxoisoindoline-1-carboxamide] registered an IC50 of 1200 nM.
Regarding `CC(CN1C(=O)c2ccccc2C1C(=O)NCc1ccc(F)cc1)c1ccc(Cl)cc1` (stereo not shown) [2-[2-(4-chlorophenyl)propyl]-N-(4-fluorobenzyl)-3-oxoisoindoline-1-carboxamide], the IC50 was 1900 nM. Against the preceding compound, the IC50 is about 1.6-fold higher.
The value for `CC(CN1C(=O)c2ccccc2C1C(=O)NCCc1c[nH]c2ccccc12)c1ccc(Cl)cc1` (stereo not shown) [2-[2-(4-chlorophenyl)propyl]-N-[2-(1H-indol-3-yl)ethyl]-3-oxoisoindoline-1-carboxamide] was 620 nM.
